The text below walks through data of patent US12329827B2, “Devices, compositions and related methods for accelerating and enhancing bone repair” (THE REGENTS OF THE UNIVERSITY OF MICHIGAN, priority 2015, dated 2025).

SMILES strings stand for the structures.

Test [1] relates to irradiated mandible fracture. Nature of the test: Fracture healing in the irradiated mandible, DFO injected into callus site (Example II). The test is classed as in vivo, rats. From the text:
The effects of radiation on bone formation and healing are mediated through the mechanisms of vascular damage, direct cellular depletion and diminished function of osteocytes. Over time, this accumulated damage predisposes patients to the debilitating problem of late pathologic fractures and non-unions. Here, the use of DFO was employed to bolster the vascular response during bone healing in this setting. It was posited that the untoward effects of radiotherapy on vascular density and osteocyte count and ultimately the mineralization and biomechanical strength of our bone would be improved with the addition of DFO. 12 rats received fractionated radiotherapy to left hemi-mandibles. After recovery, fracture repair ensued with external fixator placement and mandibular osteotomy. DFO was injected into the callus site every other day from post-operative days 4-12. A 40-day healing period was allowed prior to vessel perfusion, PCT, BMT, and histologic processing. Mandibles were dissected and gross union was assessed. Union was defined as bony bridging and the absence of motion across the fracture site. Outcome data was analyzed with ANOVA, and p≤0.05 was statistically significant. The DFO group was compared with two other groups: fracture-Fx and radiated fracture-XFx (n=12, 12).

In test [2] the test system is human umbilical vein endothelial (HUVEC) cells exposed to radiation. Briefly: Tubule formation of irradiated HUVEC cells in Matrigel (Example III). The test is classed as cell-based. Here is the method:
The effect of DFO on endothelial cells exposed to radiation in vitro was investigated. […] Four groups of human umbilical vein endothelial (HUVEC) cells (control, radiated, radiated+low dose DFO, or radiated+high dose DFO) were incubated in Matrigel and video recorded in real-time over 12 hours. DFO groups received either 25 or 50 μM doses at the time of incubation. Tubule formation was photographed at 100× magnification every four hours. Tubule numbers between groups were compared using ANOVA with p≤0.05 considered statistically significant. A severe diminution in endothelial tubule formation after radiotherapy was observed. Specifically, tubule formation was diminished 30%, 34%, and 27% respectively, compared to control values (p=0.01, at 4, 8, and 12 hours). The effects of radiation were strikingly remediated by treatment with high-dose DFO. […] These findings were clearly observed with real-time recording. […] This evidence supports the contention that DFO strongly remediates the effects of radiation on endothelial tubule formation (see, e.g., Donneys, Alexis, et al., Plastic and Reconstructive Surgery 131.5S (2013): 141).

The test system of test [3] is murine mandibular DO model. Briefly: Mandibular distraction osteogenesis model, DFO injections into the regenerate gap (Example I). In kind it is in vivo, Sprague-Dawley rats. From the text:
The effectiveness of DFO in enhancing regenerate vascularity at a full consolidation period (28 days) in a murine mandibular DO model was established. To investigate whether this augmentation in vascularity would function to accelerate consolidation without compromising regenerate quality or strength, consolidation periods prior to μCT imaging and biomechanical testing (BMT) were progressively shortened. Three time points (14 d, 21 d and 28 d) were selected and six groups of Sprague-Dawley rats (n=60) were equally divided into control (C) and experimental (E) groups for each time period. Each group underwent external fixator placement, mandibular osteotomy, and a 5.1 mm distraction. During distraction, the experimental groups were treated with DFO injections into the regenerate gap. After consolidation, mandibles were imaged and tension tested to failure. ANOVA was conducted between groups, and p<0.05 was considered statistically significant. […] The benefit of treatment was further substantiated by a striking 100% increase in the number of clinically appreciated bony unions at this early time-period (C:4/10 vs. E:8/10, FIG. 2) (see, e.g., Donneys, Alexis, et al., Bone 55.2 (2013): 384-390).

In test [4] the test system is irradiated mandibular fractures. Nature of the test: Irradiated mandibular fracture, implanted nano-DFO vs standard DFO (Example V). The test is classed as in vivo, Rats. The following applies: radiated fracture, 40-day healing. How it is done:
Rats (n=44) were divided into 4 groups. Fracture, radiated fracture, radiated fracture with standard DFO and radiated fracture with nano-DFO. Radiated groups received radiotherapy 2 weeks prior to mandibular osteotomy. The nano-DFO group received implantation of the drug at the time of surgery. Following a 40-day healing period, mandibles were assessed for bony-union, imaged with μCT, and mechanically tested to failure. ANOVA was used for comparison and (p<0.05).

For `CC(=O)N(O)CCCCCNC(=O)CCC(=O)N(O)CCCCCNC(=O)CCC(=O)N(O)CCCCCN` [DFO, N′-{5-[Acetyl(hydroxy)amino]pentyl}-N-[5-({4-[(5-aminopentyl)(hydroxy)amino]-4-oxobutanoyl}amino)pentyl]-N-hydroxysuccinamide], in test [1] (40-day healing), the “BMT and mineralization metrics vs Fx group” value is on record as “no difference”; the “BMT and mineralization metrics vs XFx group” value is recorded as “significant increase”; the “Vessel Number, Thickness and Separation” value is on record as “significant restorative effects”; the “increase in bony unions vs XFx” value was determined as 42%. In test [1] (40-day healing, p=0.029), the “Vessel Volume vs XFx” value is listed as “significant restoration to control level”. This compound registered a bony union in test [1] (40-day healing, Fx 100%, XFx 25%) of 67%. In test [1] (histomorphometry, p=0.000), the “empty lacunae vs XFx” value is “decrease” and the “osteocyte count vs XFx” value is given as “significant restoration to control level”. In test [2] (high dose DFO (50 μM), 4, 8 and 12 hours, p=0.02), the “tubule formation vs radiated cells” value is on record as “significantly increased”. Also, the “tubule formation vs normal (control) levels” value in test [2] (high dose DFO (50 μM), each time point) is on record as “reached or exceeded normal levels”. The “time of incubation to organization of cultures” value in test [2] (high-dose DFO (50 μM), real-time recording) was no more than 2 h. Also, in test [3] (14 days of consolidation), the “Bone Mineral Density (BMD) vs non-treated controls” value is listed as “significant increases”, the “Bone Volume Fraction (BVF) vs non-treated controls” value was “significant increases”, the “Ultimate Load (UL) vs non-treated controls” value is on record as “significant increases” and the “increase in the number of bony unions vs non-treated controls” value is listed as 100%. Also, the “number of clinically appreciated bony unions” value in test [3] (14 days of consolidation, unions/animals) is reported as 8/10. The “BVF, BMD, Yield and UL at 14 days vs fully consolidated 28 d control group” value in test [3] (14 days with treatment) is given as “comparable”. In test [3] (28 days), this compound displayed a bony union rate of 100%. Moreover, in test [4], the “Bony Unions” value worked out at 67% and the “radiation-induced decreases in all metrics” value is on record as “remediated”.
